Earlier results in PMC6376154 (International Journal for Parasitology: Drugs and Drug …, 2019).

Columns and labels:
[1] = design: method as in MMV data sheet; conditions: at 5 uM; ref MMV data sheet; cited from earlier work
[2] = test system: P. falciparum 3D7 asexual blood stage; conditions: cited from earlier work

Q: With CCOc1cccc(C(=O)Nc2ccc(-c3nc4ccccc4[nH]3)cc2)c1 [MMV019202] as the molecule, how does the “Solubility (Comment)” value [1] read?
A: Solubility issue at 5 uM

Q: What about the “% inh. At 2.5 uM” value ([2]; 2.5 uM, Comment column, ref MMV data sheet) of the same molecule?
A: 97%

Q: And the EC50 ([2]; value(s) per source (GSK, GNF, StJude), separated by semicolon, ref ChEMBL-NTD, read-out: CHEMBL EC50)?
A: 1.01 µM
